One block for each compound: values may come before it. Activity calls are given as the source filed them. The rule behind the calls is not given here.
How the values were obtained:
[1] = test system: 786-0; assay: Downregulation of HIF1alpha mRNA expression in human 786-0 cells at 79 uM after 48 hrs by RT-PCR analysis; type: functional, cell-based
[2] = test system: 786-0; assay: Upregulation of carbonic anhydrase 9 mRNA expression in human 786-0 cells at 79 uM after 48 hrs by RT-PCR analysis; type: ADME, cell-based; conditions: 786-0, 48 h
[3] = molecular target: T1, Endothelial PAS domain-containing protein 1 (Homo sapiens, UniProt Q99814); assay: Inhibition of HIF2alpha in human 786-0 cells assessed as reduction in VEGFA mRNA expression at 79 uM after 48 hrs by RT-PCR analysis; type: cell-based
T1 sequence (Q99814 whole entry, the tested form may be a part): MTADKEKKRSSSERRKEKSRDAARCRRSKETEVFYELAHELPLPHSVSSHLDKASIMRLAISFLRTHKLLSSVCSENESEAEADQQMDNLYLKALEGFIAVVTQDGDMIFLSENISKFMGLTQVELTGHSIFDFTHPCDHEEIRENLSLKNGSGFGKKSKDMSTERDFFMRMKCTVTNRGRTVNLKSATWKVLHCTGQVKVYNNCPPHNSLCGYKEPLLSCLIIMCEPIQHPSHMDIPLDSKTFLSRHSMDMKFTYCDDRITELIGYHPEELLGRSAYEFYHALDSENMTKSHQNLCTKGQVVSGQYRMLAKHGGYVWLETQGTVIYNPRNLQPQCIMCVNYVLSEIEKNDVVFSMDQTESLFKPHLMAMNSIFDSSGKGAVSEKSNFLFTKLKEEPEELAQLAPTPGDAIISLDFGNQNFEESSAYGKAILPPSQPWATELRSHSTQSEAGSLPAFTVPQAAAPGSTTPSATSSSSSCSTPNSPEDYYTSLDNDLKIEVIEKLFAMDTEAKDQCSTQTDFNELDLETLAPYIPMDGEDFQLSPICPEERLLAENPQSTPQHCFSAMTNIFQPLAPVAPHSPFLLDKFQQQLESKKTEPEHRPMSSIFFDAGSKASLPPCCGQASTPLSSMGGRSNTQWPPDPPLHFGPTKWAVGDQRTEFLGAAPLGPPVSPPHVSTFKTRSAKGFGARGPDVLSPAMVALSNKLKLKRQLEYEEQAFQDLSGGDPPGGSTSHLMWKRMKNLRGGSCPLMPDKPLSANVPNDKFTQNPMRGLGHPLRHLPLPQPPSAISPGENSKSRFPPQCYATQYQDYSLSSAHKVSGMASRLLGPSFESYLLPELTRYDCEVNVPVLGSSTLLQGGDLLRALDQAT

[4] = molecular target: T1, Endothelial PAS domain-containing protein 1; assay: Inhibition of HIF2alpha in human 786-0 cells assessed as reduction in CCND1 mRNA expression at 79 uM after 48 hrs by RT-PCR analysis; type: cell-based
[5] = molecular target: T1, Endothelial PAS domain-containing protein 1; assay: Inhibition of HIF2alpha in human 786-0 cells assessed as reduction in GLUT1 mRNA expression at 79 uM after 48 hrs by RT-PCR analysis; type: cell-based
[6] = molecular target: T1, Endothelial PAS domain-containing protein 1; assay: Inhibition of HIF2alpha in human 786-0 cells assessed as reduction in TGFalpha mRNA expression at 79 uM after 48 hrs by RT-PCR analysis; type: cell-based
[7] = Cytotoxicity against human SK-RC-28 cells expressing HIF1alpha after 2 days by XTT assay; type: functional, cell-based; conditions: 48 h
[8] = Cytotoxicity against human RCC4 cells expressing HIF2alpha and HIF1alpha after 2 days by XTT assay; type: functional, cell-based; conditions: RCC4, 48 h
[9] = test system: 786-0; assay: Cytotoxicity against human 786-0 cells expressing HIF2alpha after 2 days by XTT assay; type: functional, cell-based; conditions: 786-0, 48 h
[10] = test system: 786-0; assay: Induction of total protein expression in serum deprived human 786-0 cells at 79 uM after 48 hrs relative to control; type: cell-based; conditions: 786-0, 48 h
[11] = test system: 786-0; assay: Induction of HIF-mediated VEGFA expression in serum deprived human 786-0 cells at 79 uM after 48 hrs relative to control; type: cell-based
[12] = molecular target: T1, Endothelial PAS domain-containing protein 1; assay: Inhibition of HIF2alpha in human 786-0 cells expressing truncated HIF1alpha assessed as reduction in luciferase activity after 24 hrs by reporter gene assay; type: cell-based
[13] = molecular target: Hypoxia-inducible factor 1-alpha (Homo sapiens) (UniProt Q16665); assay: Inhibition of HIF1alpha in human SK-RC-28 cells assessed as reduction in VEGFA expression at 79 uM after 48 hrs by RT-PCR analysis; type: cell-based
Hypoxia-inducible factor 1-alpha (Homo sapiens), sequence (Q16665 whole entry, looked up): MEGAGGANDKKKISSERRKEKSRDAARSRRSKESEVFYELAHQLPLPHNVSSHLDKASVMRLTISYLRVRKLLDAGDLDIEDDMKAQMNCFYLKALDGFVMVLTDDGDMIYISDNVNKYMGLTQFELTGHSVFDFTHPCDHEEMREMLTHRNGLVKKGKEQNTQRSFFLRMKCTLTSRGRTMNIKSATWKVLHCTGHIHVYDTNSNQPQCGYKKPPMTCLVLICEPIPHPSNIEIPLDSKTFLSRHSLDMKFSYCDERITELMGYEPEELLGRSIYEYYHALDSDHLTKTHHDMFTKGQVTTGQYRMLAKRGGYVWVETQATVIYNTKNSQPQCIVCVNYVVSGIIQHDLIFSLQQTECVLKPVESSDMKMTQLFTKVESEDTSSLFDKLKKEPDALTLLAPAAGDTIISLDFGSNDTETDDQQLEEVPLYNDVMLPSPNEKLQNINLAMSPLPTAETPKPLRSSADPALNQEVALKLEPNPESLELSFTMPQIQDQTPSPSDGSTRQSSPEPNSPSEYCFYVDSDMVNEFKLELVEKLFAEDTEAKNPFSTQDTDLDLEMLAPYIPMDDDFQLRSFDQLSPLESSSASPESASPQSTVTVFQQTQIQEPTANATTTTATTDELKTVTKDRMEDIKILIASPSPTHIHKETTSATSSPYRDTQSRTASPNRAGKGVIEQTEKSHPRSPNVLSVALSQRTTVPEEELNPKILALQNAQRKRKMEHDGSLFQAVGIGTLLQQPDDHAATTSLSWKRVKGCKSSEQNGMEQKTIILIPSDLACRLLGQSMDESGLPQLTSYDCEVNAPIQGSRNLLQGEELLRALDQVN

[14] = molecular target: Hypoxia-inducible factor 1-alpha (Homo sapiens) (UniProt Q16665); assay: Inhibition of HIF1alpha in human SK-RC-28 cells assessed as reduction in carbonic anhydrase expression at 79 uM after 48 hrs by RT-PCR analysis; type: cell-based
[15] = Downregulation of HIF2alpha mRNA expression in human SK-RC-28 cells at 79 uM after 48 hrs by RT-PCR analysis; type: functional, cell-based
[16] = Downregulation of HIF1alpha mRNA expression in human SK-RC-28 cells at 79 uM after 48 hrs by RT-PCR analysis; type: functional, cell-based
[17] = Downregulation of CCND1 mRNA expression in human SK-RC-28 cells at 79 uM after 48 hrs by RT-PCR analysis; type: functional, cell-based
[18] = Downregulation of GLUT1 mRNA expression in human SK-RC-28 cells at 79 uM after 48 hrs by RT-PCR analysis; type: functional, cell-based
[19] = Downregulation of TGFalpha mRNA expression in human SK-RC-28 cells at 79 uM after 48 hrs by RT-PCR analysis; type: functional, cell-based
[20] = Downregulation of HIF2alpha mRNA expression in human RCC4 cells at 79 uM after 48 hrs by RT-PCR analysis; type: functional, cell-based
[21] = Downregulation of HIF1alpha mRNA expression in human RCC4 cells at 79 uM after 48 hrs by RT-PCR analysis; type: functional, cell-based
[22] = molecular target: T2, Hypoxia inducible factors; HIF-1-alpha, HIF-2-alpha (Homo sapiens) (UniProt Q16665+Q99814); assay: Inhibition of HIF1alpha/2alpha in human RCC4 cells assessed as reduction in VEGFA mRNA expression at 79 uM after 48 hrs by RT-PCR analysis; type: cell-based
[23] = molecular target: T1, Endothelial PAS domain-containing protein 1; assay: Inhibition of HIF2alpha in human RCC4 cells coexpressing HIF1alpha assessed as reduction in CCND1 mRNA expression at 79 uM after 48 hrs by RT-PCR analysis; type: cell-based
[24] = molecular target: T1, Endothelial PAS domain-containing protein 1; assay: Inhibition of HIF2alpha in human RCC4 cells coexpressing HIF1alpha assessed as reduction in GLUT1 mRNA expression at 79 uM after 48 hrs by RT-PCR analysis; type: cell-based
[25] = molecular target: T1, Endothelial PAS domain-containing protein 1; assay: Inhibition of HIF2alpha in human RCC4 cells coexpressing HIF1alpha assessed as reduction in TGFalpha mRNA expression at 79 uM after 48 hrs by RT-PCR analysis; type: cell-based
[26] = molecular target: Hypoxia-inducible factor 1-alpha (Homo sapiens) (UniProt Q16665); assay: Inhibition of HIF1alpha in human RCC4 cells coexpressing HIF2alpha assessed as decrease in carbonic anhydrase 9 mRNA expression at 79 uM after 48 hrs by RT-PCR analysis; type: cell-based
[27] = test system: 786-0; assay: Downregulation of HIF2alpha mRNA expression in human 786-0 cells at 79 uM after 48 hrs by RT-PCR analysis; type: functional, cell-based
[28] = test system: total protein expression; assay: Inhibition of total protein expression in serum deprived human 786-0 cells at 20 uM after 48 hrs relative to control; type: cell-based; conditions: 786-0 cells
[29] = test system: 786-0; assay: Inhibition of HIF-mediated VEGFA protein expression in serum deprived human 786-0 cells at 21 uM after 48 hrs relative to control; type: cell-based
[30] = Downregulation of actin mRNA expression in human SK-RC-28 cells expressing HIF2alpha at 21 uM after 48 hrs by RT-PCr analysis; type: ADME, cell-based
[31] = Downregulation of actin mRNA expression in human RCC4 cells expressing HIF1alpha and HIF2alpha at 21 uM after 48 hrs by RT-PCr analysis; type: ADME, cell-based; conditions: rcc4, 48 h
[32] = test system: 786-0; assay: Downregulation of actin mRNA expression in human […] at 21 uM after 48 hrs by RT-PCr analysis; type: ADME, cell-based; conditions: 786-0, 48 h
[33] = Downregulation of HIF2alpha mRNA expression in human SK-RC-28 cells at 21 uM after 48 hrs by RT-PCR analysis; type: functional, cell-based
[34] = Downregulation of HIF1alpha mRNA expression in human SK-RC-28 cells at 21 uM after 48 hrs by RT-PCR analysis; type: functional, cell-based
[35] = Downregulation of CCND1 mRNA expression in human SK-RC-28 cells at 21 uM after 48 hrs by RT-PCR analysis; type: functional, cell-based
[36] = Downregulation of GLUT1 mRNA expression in human SK-RC-28 cells at 21 uM after 48 hrs by RT-PCR analysis; type: functional, cell-based
[37] = Downregulation of TGFalpha mRNA expression in human SK-RC-28 cells at 21 uM after 48 hrs by RT-PCR analysis; type: functional, cell-based
[38] = molecular target: Hypoxia-inducible factor 1-alpha (Homo sapiens) (UniProt Q16665); assay: Inhibition of HIF1alpha in human SK-RC-28 cells assessed as reduction in VEGFA expression at 21 uM after 48 hrs by RT-PCR analysis; type: cell-based
[39] = molecular target: Hypoxia-inducible factor 1-alpha (Homo sapiens) (UniProt Q16665); assay: Inhibition of HIF1alpha in human SK-RC-28 cells assessed as reduction in carbonic anhydrase 9 expression at 21 uM after 48 hrs by RT-PCR analysis; type: cell-based
[40] = Downregulation of HIF2alpha mRNA expression in human RCC4 cells at 21 uM after 48 hrs by RT-PCR analysis; type: functional, cell-based
[41] = Downregulation of HIF1alpha mRNA expression in human RCC4 cells at 21 uM after 48 hrs by RT-PCR analysis; type: functional, cell-based
[42] = molecular target: T2, Hypoxia inducible factors; HIF-1-alpha, HIF-2-alpha (Homo sapiens); assay: Inhibition of HIF1alpha/2alpha in human RCC4 cells assessed as reduction in VEGFA mRNA expression at 21 uM after 48 hrs by RT-PCR analysis; type: cell-based
[43] = molecular target: T1, Endothelial PAS domain-containing protein 1; assay: Inhibition of HIF2alpha in human RCC4 cells coexpressing HIF1alpha assessed as reduction in CCND1 mRNA expression at 21 uM after 48 hrs by RT-PCR analysis; type: cell-based
[44] = molecular target: T1, Endothelial PAS domain-containing protein 1; assay: Inhibition of HIF2alpha in human RCC4 cells coexpressing HIF1alpha assessed as reduction in GLUT1 mRNA expression at 21 uM after 48 hrs by RT-PCR analysis; type: cell-based
[45] = molecular target: T1, Endothelial PAS domain-containing protein 1; assay: Inhibition of HIF2alpha in human RCC4 cells coexpressing HIF1alpha assessed as reduction in TGFalpha mRNA expression at 21 uM after 48 hrs by RT-PCR analysis; type: cell-based
[46] = molecular target: Hypoxia-inducible factor 1-alpha (Homo sapiens) (UniProt Q16665); assay: Inhibition of HIF1alpha in human RCC4 cells coexpressing HIF2alpha assessed as decrease in carbonic anhydrase 9 mRNA expression at 21 uM after 48 hrs by RT-PCR analysis; type: cell-based
[47] = test system: 786-0; assay: Downregulation of HIF2alpha mRNA expression in human 786-0 cells at 21 uM after 48 hrs by RT-PCR analysis; type: functional, cell-based
[48] = test system: 786-0; assay: Downregulation of HIF1alpha mRNA expression in human 786-0 cells at 21 uM after 48 hrs by RT-PCR analysis; type: functional, cell-based
[49] = molecular target: T1, Endothelial PAS domain-containing protein 1; assay: Inhibition of HIF2alpha in human 786-0 cells assessed as reduction in VEGFA expression at 21 uM after 48 hrs by RT-PCR analysis; type: cell-based
[50] = molecular target: T1, Endothelial PAS domain-containing protein 1; assay: Inhibition of HIF2alpha in human 786-0 cells assessed as reduction in CCND1 mRNA expression at 21 uM after 48 hrs by RT-PCR analysis; type: cell-based
[51] = molecular target: T1, Endothelial PAS domain-containing protein 1; assay: Inhibition of HIF2alpha in human 786-0 cells assessed as reduction in GLUT1 mRNA expression at 21 uM after 48 hrs by RT-PCR analysis; type: cell-based
[52] = molecular target: T1, Endothelial PAS domain-containing protein 1; assay: Inhibition of HIF2alpha in human 786-0 cells assessed as reduction in TGFalpha mRNA expression at 21 uM after 48 hrs by RT-PCR analysis; type: cell-based
[53] = test system: 786-0; assay: Downregulation of carbonic anhydrase 9 expression in human 786-0 cells at 21 uM after 48 hrs by RT-PCR analysis; type: functional, cell-based

inhibition [3]: Active
inhibition [4]: Active
inhibition [5]: Active
inhibition [6]: Active
EC50 [12]: 2.7 µM
inhibition [13]: inactive
inhibition [14]: inactive
inhibition [22]: Active
inhibition [23]: Active
inhibition [24]: Active
inhibition [25]: Active
inhibition [26]: Active
SMILES: C/C=C(/C)C(=O)OCC1C2=C(C=CN1C=O)C(=O)C(C)=C(OC)C2=O (mixture of isomers)
Activity [1]: Active
Activity [2]: Toxic
IC50 [7]: 38.7 µM
IC50 [8]: 26.3 µM
IC50 [9]: 33.8 µM
Activity [10]: Toxic
Activity [11]: Active
Activity [15]: inactive
Activity [16]: inactive
Activity [17]: inactive
Activity [18]: inactive
Activity [19]: inactive
Activity [20]: Active
Activity [21]: Active
Activity [27]: Active

SMILES: C1=C/[C@H]2[C@@H]3CCCC[C@H]3C[C@@H]2NCCCN[C@@H]2C[C@@H]3CCCC[C@H]3[C@@H]2/C=C/1 [HALICLONADIAMINE]
IC50 [7]: 16.1 µM
IC50 [9]: 15.1 µM
inhibition at 48 h, 20 µM [28]: 20%
inhibition [29]: 50%
EC50 [12]: 14.8 µM
Activity [30]: Toxic
Activity [31]: Toxic
Activity [32]: Toxic
Activity [33]: Active
Activity [34]: Active
Activity [35]: Active
Activity [36]: Active
Activity [37]: Active
inhibition [38]: Active
inhibition [39]: Active
Activity [40]: Active
Activity [41]: Active
inhibition [42]: Active
inhibition [43]: Active
inhibition [44]: Active
inhibition [45]: Active
inhibition [46]: Active
Activity [47]: Active
Activity [48]: Active
inhibition [49]: Active
inhibition [50]: Active
inhibition [51]: Active
inhibition [52]: Active
Activity [53]: Active

From ChEMBL document CHEMBL2177034, “Inhibition of hypoxia inducible factor-2 transcription: isolation of active modulators from marine sponges” (J Nat Prod, 2012)
